PubChem BioAssay (NCI)
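Protocol summary: plate cells (96-well), add compound at 5 concentrations, incubate 48 h, interpolate endpoints linearly. TGI: concentration producing complete growth inhibition.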 Where a SMILES comes first, the peptide text is derived from it. The star is where a group is joined. OSu = O=C1CCC(=O)N1O*

Test system: NCI-H226 lung
Test: DTP human tumour cell line panel, 48 h

**Q.** For `CCOC(=O)c1nnn(CCCCO)c1C(=O)OCC`, which TGI is on record?
**A.** > 100 µM

**Q.** Which TGI does the source give for `Cc1ccc(-[n+]2cc([O-])on2)cc1` here?
**A.** > 100 µM

**Q.** How did the TGI turn out when `C(=C/CCCN1O[C@@H](CCCCCCCCc2cccnc2)[C@H]2CCC[C@H]21)/CCCCCCCCCc1cccnc1` was run?
**A.** 36.8 µM

**Q.** `NCCCCC(NC(=O)C(N)Cc1ccc(O)cc1)C(=O)NC(CCCCN)C(=O)NC(CCCCN)C(=O)ON1C(=O)CCC1=O` (stereo unspecified) (H-YKKK-OSu; configuration not given here) was tested. Which TGI did it give?
**A.** > 100 µM

**Q.** Which TGI does the source give for `Cc1ccc(S(=O)(=O)N2CC2CCCCC=O)cc1` (stereo unspecified) here?
**A.** > 100 µM

**Q.** For `NC(N)=NS(=O)(=O)c1ccc(N=Nc2c(O)c(C(=O)O)cc3ccccc23)cc1`, which TGI is on record?
**A.** > 100 µM

Test system: MDA-MB-231 breast
Test: DTP human tumour cell line panel, 48 h

**Q.** For `C=C(C)C12OC1[C@@]1(C)C(=CC2=O)CCC(O)[C@@H]1C` (stereo partly specified), which TGI is on record?
**A.** 7.11 µM

**Q.** For `CCOC(=O)c1nnn(CCCCO)c1C(=O)OCC`, which TGI is on record?
**A.** > 100 µM

**Q.** For `Cc1ccc(-[n+]2cc([O-])on2)cc1`, which TGI is on record?
**A.** > 100 µM

**Q.** `C(=C/CCCN1O[C@@H](CCCCCCCCc2cccnc2)[C@H]2CCC[C@H]21)/CCCCCCCCCc1cccnc1` was tested. Which TGI did it give?
**A.** 36.9 µM

**Q.** For `NCCCCC(NC(=O)C(N)Cc1ccc(O)cc1)C(=O)NC(CCCCN)C(=O)NC(CCCCN)C(=O)ON1C(=O)CCC1=O` (stereo unspecified) (H-YKKK-OSu; configuration not given here), which TGI is on record?
**A.** > 100 µM

**Q.** How did the TGI turn out when `Cc1ccc(S(=O)(=O)N2CC2CCCCC=O)cc1` (stereo unspecified) was run?
**A.** > 100 µM

**Q.** `NC(N)=NS(=O)(=O)c1ccc(N=Nc2c(O)c(C(=O)O)cc3ccccc23)cc1` was tested. Which TGI did it give?
**A.** > 100 µM

Test system: SF-268 CNS
Test: DTP human tumour cell line panel, 48 h

**Q.** How did the TGI turn out when `C=C(C)C12OC1[C@@]1(C)C(=CC2=O)CCC(O)[C@@H]1C` (stereo partly specified) was run?
**A.** 14.7 µM

**Q.** How did the TGI turn out when `CCOC(=O)c1nnn(CCCCO)c1C(=O)OCC` was run?
**A.** > 100 µM

**Q.** For `Cc1ccc(-[n+]2cc([O-])on2)cc1`, which TGI is on record?
**A.** > 100 µM

**Q.** `C(=C/CCCN1O[C@@H](CCCCCCCCc2cccnc2)[C@H]2CCC[C@H]21)/CCCCCCCCCc1cccnc1` was tested. Which TGI did it give?
**A.** 63.7 µM

**Q.** How did the TGI turn out when `Cc1ccc(S(=O)(=O)N2CC2CCCCC=O)cc1` (stereo unspecified) was run?
**A.** > 100 µM

**Q.** With `NC(N)=NS(=O)(=O)c1ccc(N=Nc2c(O)c(C(=O)O)cc3ccccc23)cc1` as the molecule, how does the TGI read?
**A.** > 100 µM

Test system: HCC-2998 colon
Test: DTP human tumour cell line panel, 48 h

**Q.** Which TGI does the source give for `C=C(C)C12OC1[C@@]1(C)C(=CC2=O)CCC(O)[C@@H]1C` (stereo partly specified) here?
**A.** 17.6 µM

**Q.** Which TGI does the source give for `CCOC(=O)c1nnn(CCCCO)c1C(=O)OCC` here?
**A.** > 100 µM

**Q.** Which TGI does the source give for `NCCCCC(NC(=O)C(N)Cc1ccc(O)cc1)C(=O)NC(CCCCN)C(=O)NC(CCCCN)C(=O)ON1C(=O)CCC1=O` (stereo unspecified) (H-YKKK-OSu; configuration not given here) here?
**A.** > 100 µM

**Q.** How did the TGI turn out when `NC(N)=NS(=O)(=O)c1ccc(N=Nc2c(O)c(C(=O)O)cc3ccccc23)cc1` was run?
**A.** > 100 µM

Test system: LOX IMVI melanoma
Test: DTP human tumour cell line panel, 48 h

**Q.** For `C=C(C)C12OC1[C@@]1(C)C(=CC2=O)CCC(O)[C@@H]1C` (stereo partly specified), which TGI is on record?
**A.** 16.6 µM

**Q.** With `CCOC(=O)c1nnn(CCCCO)c1C(=O)OCC` as the molecule, how does the TGI read?
**A.** > 100 µM

**Q.** `Cc1ccc(-[n+]2cc([O-])on2)cc1` was tested. Which TGI did it give?
**A.** > 100 µM

**Q.** `C(=C/CCCN1O[C@@H](CCCCCCCCc2cccnc2)[C@H]2CCC[C@H]21)/CCCCCCCCCc1cccnc1` was tested. Which TGI did it give?
**A.** 35.3 µM

**Q.** With `Cc1ccc(S(=O)(=O)N2CC2CCCCC=O)cc1` (stereo unspecified) as the molecule, how does the TGI read?
**A.** 56 µM

Test system: NCI-H23 lung
Test: DTP human tumour cell line panel, 48 h

**Q.** `C=C(C)C12OC1[C@@]1(C)C(=CC2=O)CCC(O)[C@@H]1C` (stereo partly specified) was tested. Which TGI did it give?
**A.** 16.2 µM

**Q.** With `CCOC(=O)c1nnn(CCCCO)c1C(=O)OCC` as the molecule, how does the TGI read?
**A.** > 100 µM

**Q.** How did the TGI turn out when `Cc1ccc(-[n+]2cc([O-])on2)cc1` was run?
**A.** > 100 µM

**Q.** How did the TGI turn out when `C(=C/CCCN1O[C@@H](CCCCCCCCc2cccnc2)[C@H]2CCC[C@H]21)/CCCCCCCCCc1cccnc1` was run?
**A.** 61.7 µM

**Q.** `NCCCCC(NC(=O)C(N)Cc1ccc(O)cc1)C(=O)NC(CCCCN)C(=O)NC(CCCCN)C(=O)ON1C(=O)CCC1=O` (stereo unspecified) (H-YKKK-OSu; configuration not given here) was tested. Which TGI did it give?
**A.** > 100 µM

**Q.** How did the TGI turn out when `Cc1ccc(S(=O)(=O)N2CC2CCCCC=O)cc1` (stereo unspecified) was run?
**A.** > 100 µM

**Q.** For `NC(N)=NS(=O)(=O)c1ccc(N=Nc2c(O)c(C(=O)O)cc3ccccc23)cc1`, which TGI is on record?
**A.** > 100 µM

Test system: SNB-19 CNS
Test: DTP human tumour cell line panel, 48 h

**Q.** For `C=C(C)C12OC1[C@@]1(C)C(=CC2=O)CCC(O)[C@@H]1C` (stereo partly specified), which TGI is on record?
**A.** 33.2 µM

**Q.** With `CCOC(=O)c1nnn(CCCCO)c1C(=O)OCC` as the molecule, how does the TGI read?
**A.** 84.5 µM

**Q.** With `Cc1ccc(-[n+]2cc([O-])on2)cc1` as the molecule, how does the TGI read?
**A.** > 100 µM

**Q.** Which TGI does the source give for `C(=C/CCCN1O[C@@H](CCCCCCCCc2cccnc2)[C@H]2CCC[C@H]21)/CCCCCCCCCc1cccnc1` here?
**A.** 85 µM

**Q.** With `NCCCCC(NC(=O)C(N)Cc1ccc(O)cc1)C(=O)NC(CCCCN)C(=O)NC(CCCCN)C(=O)ON1C(=O)CCC1=O` (stereo unspecified) (H-YKKK-OSu; configuration not given here) as the molecule, how does the TGI read?
**A.** > 100 µM

**Q.** Which TGI does the source give for `Cc1ccc(S(=O)(=O)N2CC2CCCCC=O)cc1` (stereo unspecified) here?
**A.** > 100 µM

Test system: NCI/ADR-RES ovarian
Test: DTP human tumour cell line panel, 48 h

**Q.** How did the TGI turn out when `CCOC(=O)c1nnn(CCCCO)c1C(=O)OCC` was run?
**A.** > 100 µM

**Q.** Which TGI does the source give for `Cc1ccc(-[n+]2cc([O-])on2)cc1` here?
**A.** > 100 µM

**Q.** For `C(=C/CCCN1O[C@@H](CCCCCCCCc2cccnc2)[C@H]2CCC[C@H]21)/CCCCCCCCCc1cccnc1`, which TGI is on record?
**A.** 88.5 µM

**Q.** How did the TGI turn out when `Cc1ccc(S(=O)(=O)N2CC2CCCCC=O)cc1` (stereo unspecified) was run?
**A.** > 100 µM

**Q.** How did the TGI turn out when `NC(N)=NS(=O)(=O)c1ccc(N=Nc2c(O)c(C(=O)O)cc3ccccc23)cc1` was run?
**A.** > 100 µM
